Measured values published in patent US20080045534A1, “Derivatives of 1,3-diamino benzene as potassium channel modulators” (Valeant Pharmaceuticals North America, priority 2006, published 2008).

target: T1, KCNQ 2/3 (Rattus norvegicus, UniProt O88943+O88944); experiment: rubidium (Rb+) efflux assay in NGF-differentiated PC-12 cells; format: cell-based; conditions: concentration for 50% of maximal Rb+ efflux, depolarization buffer (15 mM KCl), 10 min at room temperature
T1 construct: endogenous in cells; host or cells: PC-12 cells differentiated with NGF-7s
Protocol: Compounds of this invention formula were evaluated as KCNQ 2/3 modulators by measuring rhubidium release in the following assay.
Methods: PC-12 cells were grown at 37° C. and 5% CO2 in DMEM/F12 Medium supplemented with 10% horse serum, 5% fetal bovine serum, 2 mM glutamine, 100 U/ml penicillin, 100 U/ml streptomycin. They were plated in poly-D-lysine-coated 96-well cell culture microplates at a density of 40,000 cells/well and differentiated with 100 ng/ml NGF-7s for 2-5 days. For the assay, the medium was aspirated and the cells were washed once with 0.2 ml in wash buffer (25 mM Hepes, pH 7.4, 150 mM NaCl, 1 mM MgCl2, 0.8 mM NaH2PO4, 2 mM CaCl2). The cells were then loaded with 0.2 ml Rb^+ loading buffer (wash buffer plus 5.4 mM […], 5 mM glucose) and incubated at 37° C. for 2 h. Attached cells were quickly washed three times with buffer (same as Rb^+ loading buffer, but containing 5.4 mM KCl instead of RbCl) to remove extracellular Rb^+. Immediately following the wash, 0.2 ml of depolarization buffer (wash buffer plus 15 mM KCl) with or without compounds was added to the cells to activate efflux of potassium ion channels. After incubation for 10 min at room temperature, the supernatant was carefully removed and collected. Cells were lysed by the addition of 0.2 ml of lysis buffer (depolarization buffer plus 0.1% Triton X-100) and the cell lysates were also collected. If collected samples were not immediately analyzed for Rb^+ contents by atomic absorption spectroscopy (see below), they were stored at 4° C. without any negative effects on subsequent Rb^+ analysis.
The concentration of Rb^+ in the supernatants (Rb^+Sup) and cell lysates (Rb^+Lys) was quantified using an ICR8000 flame atomic absorption spectrometer (Aurora Biomed Inc., Vancouver, B.C.) under conditions defined by the manufacturer. One 0.05 ml samples were processed automatically from microtiter plates by dilution with an equal volume of Rb^+ sample analysis buffer and injection into an air-acetylene flame. The amount of Rb^+ in the sample was measured by absorption at 780 nm using a hollow cathode lamp as light source and a PMT detector. A calibration curve covering the range 0-5 mg/L Rb^+ in sample analysis buffer was generated with each set of plates. The percent Rb^+ efflux (F) was defined by
F=[Rb^+Sup/(Rb^+Sup+Rb^+Lys)]×100%.
The effect (E) of a compound was defined by:
where the Fc is the efflux in the presence of compound in depolarization buffer, Fb is the efflux in basal buffer, and Fs is the efflux in depolarization buffer, and. The effect (E) and compound concentration relationship was plotted to calculate an EC50 value, a compound's concentration for 50% of maximal Rb^+ efflux. Legend: A: EC50<50 nM; B: EC50=50 nM-200 nM; C: EC50=200 nM-1.0 μM; D: EC50=1.0 μM-10 μM; E: EC50>10 μM

| EC50 [nM] | SMILES |
| --- | --- |
| 200 to 1000 | Cc1ccc(NCc2ccc(F)cc2)cc1NC(=O)CC(C)(C)C |
| < 50 | Cc1ccc(NCc2ccc(F)cc2)c(C)c1NC(=O)CCC1CCCC1 |
| 200 to 1000 | Cc1ccc(NCc2ccc(C(F)(F)F)cc2)c(C)c1NC(=O)CC(C)(C)C |
| < 50 | CCc1ccc(NCc2ccc(F)cc2)c(CC)c1NC(=O)CCC1CCCC1 |
| 50 to 200 | Cc1ccc(NCc2ccc(F)cc2)c(Cl)c1NC(=O)CC(C)(C)C |
| 50 to 200 | Cc1ccc(NCc2ccc(F)cc2)c(C)c1NC(=O)CC(C)(C)C |
| 50 to 200 | Cc1c(NCc2ccc(F)cc2)cccc1NC(=O)CC(C)(C)C |
| 50 to 200 | CCc1c(NCc2ccc(F)cc2)ccc(C)c1NC(=O)CC(C)(C)C |
| 50 to 200 | CCc1ccc(NCc2ccc(F)cc2)c(C)c1NC(=O)CC(C)(C)C |

Further lines, the molecule ahead of its results:

| SMILES | EC50 [nM] |
| --- | --- |
| Cc1ccc(N2CCOCC2)c(C)c1NC(=O)CC(C)(C)C | 1000 to 10000 |
| CC(C)(C)CC(=O)Nc1ccc(F)c(N2CCOCC2)c1 | > 10000 |
| Cc1ccc(NCc2ccc(C(F)(F)F)cc2)c(C)c1NC(=O)CCC1CCCC1 | < 50 |
| Cc1c(N2CCOCC2)ccc(F)c1NC(=O)CC(C)(C)C | 1000 to 10000 |
| Cc1ccc(NC(=O)CC(C)(C)C)cc1N1CCOCC1 | 1000 to 10000 |
| Cc1ccc(N2CCc3ccccc3C2)cc1NC(=O)CC(C)(C)C | 200 to 1000 |
| Cc1cc(Cl)c(N2CCOCC2)cc1NC(=O)CC(C)(C)C | 1000 to 10000 |
| Cc1ccc(N2CCOCC2)cc1NC(=O)CC(C)(C)C | > 10000 |
| Cc1c(NC(=O)CC(C)(C)C)cccc1N1CCOCC1 | > 10000 |
| CC(C)(C)CC(=O)Nc1cc(N2CCOCC2)c(F)cc1F | 1000 to 10000 |
| COc1ccc(NCc2ccc(F)cc2)c(C)c1NC(=O)CCC1CCCC1 | 50 to 200 |
| COc1ccc(N2CCOCC2)c(C)c1NC(=O)CC(C)(C)C | 1000 to 10000 |
